In patent US11559538B2, “Substituted 1,2-oxaborolan-2-ols as PDE4 inhibitors” (Pfizer Inc., priority 2018, dated 2023):
Read-outs that look alike come from different tables or passages of the source.

What was measured:
Type in all cases: cell-based
[1] = system: IL-4; assay: Cytokine assay: IL-4 release from PHA-L stimulated human PBMCs; details: read-out: IL4 IC50
Procedure: (§1) Cytokine inhibitory activity is determined by measuring the effect of test agent on the release of the cytokines IL-4, IL-13 and IFNγ from human peripheral blood mononuclear cells (PBMCs) stimulated with the T-cell mitogen phytohemagglutinin-L (PHA-L). At the time of assay, human PBMCs (Astarte Biologics) are removed from cryopreservation, thawed quickly at 37° C., diluted in assay medium (RPMI-Gibco 1640 medium, 10% heat inactivated fetal bovine serum (HIFBS), 2 mM glutamine and 10 mM HEPES pH 7.4) and then centrifuged at 250×g for 5 minutes. The resulting cell pellet is re-suspended in assay medium to a concentration of approximately 5×10^6 cells/mL and 50 μL of this cell suspension (approximately 250,000 cells) is added to each well of a 384-well cell culture microtiter plate (Perkin Elmer). Varying concentrations of test compound are then diluted in assay medium and added to the assay plate wells in a volume of 25 μL. After −10 minutes at room temperature (21° C.) the cells are stimulated by the addition of 25 μL of PHA-L (14 μg/mL; Millipore) and the assay plate is placed in an incubator at 37° C. in a humidified environment in 5% carbon dioxide. The final assay conditions are approximately 250,000 human PBMCs per well in assay medium containing 3.5 μg/mL PHA-L and the indicated final concentration of test compound (approximately 10 μM to […] by 4-fold dilution). The final concentration of DMSO in the assay is approximately 0.25%. After 48 hours, the assay plate is removed from the incubator and centrifuged at 250×g for 5 minutes. A portion of the resulting cell supernatant is then used to determine the amount of IL-4, IL-13 and IFNγ in each well. Cytokine measurements are made using human IL-4, IL-13 or IFNγ HTRF assay kits (CisBio) following the manufacturer's assay protocol. The concentrations and resulting effect values for tested compounds are plotted and the concentration of compound required for 50% effect (IC50) is determined with a four-parameter logistic dose response equation (E-WorkBook, ID Business Solutions Ltd.) and shown in Table 17.

[2] = system: IL-13; assay: Cytokine assay: IL-13 release from PHA-L stimulated human PBMCs; details: read-out: IL13 IC50
Procedure: as §1

[3] = system: IFNγ; assay: Cytokine assay: IFNγ release from PHA-L stimulated human PBMCs
Procedure: as §1

Row | Structure (SMILES) | IC50 [1] [nM] | IC50 [2] [nM] | IC50 [3] [nM] | IC50 ([3]; Homo sapiens, PBMC) [nM] | IC50 ([1]; Homo sapiens, PBMC) [nM] | IC50 ([2]; Homo sapiens, PBMC) [nM]
1 | CCOc1cc(-c2cncc(C3COB(O)C3)c2)c(C)cc1OC (single isomer, unassigned) [Example 70, 4-(5-(5-ethoxy-4-methoxy-2-methylphenyl)pyridin-3-yl)-1,2-oxaborolan-2-ol] | 4.31 | 890 | 2.85 | – | – | –
2 | CCOc1cc(-c2cncc(C3COB(O)C3)c2)c(C)cc1OC (single isomer, unassigned) [Example 71, 4-(5-(5-ethoxy-4-methoxy-2-methylphenyl)pyridin-3-yl)-1,2-oxaborolan-2-ol] | 42 | 1910 | 18.8 | – | – | –
3 | CCOc1ccc(-c2cncc(C3COB(O)C3)c2)cc1OCC (single isomer, unassigned) [Example 97, 4-(5-(3,4-diethoxyphenyl)pyridin-3-yl)-1,2-oxaborolan-2-ol] | 34 | 465 | – | 2.81 | – | –
4 | CSc1ccc(-c2cncc(C3COB(O)C3)c2)cc1OC1CCCC1 (single isomer, unassigned) [Example 100, 4-(5-(3-(cyclopentyloxy)-4-(methylthio)phenyl)pyridin-3-yl)-1,2-oxaborolan-2-ol] | – | 472 | 4.32 | – | 32.7 | –
5 | CSc1ccc(-c2cncc(C3COB(O)C3)c2)cc1OC1CCCC1 (single isomer, unassigned) [Example 101, 4-(5-(3-(cyclopentyloxy)-4-(methylthio)phenyl)pyridin-3-yl)-1,2-oxaborolan-2-ol] | 26 | 2650 | 13.3 | – | – | –
6 | CCCOc1cc(-c2nc(COC)cc(C3COB(O)C3)n2)ccc1OC (single isomer, unassigned) [Example 103, 4-(2-(4-methoxy-3-propoxyphenyl)-6-(methoxymethyl)pyrimidin-4-yl)-1,2-oxaborolan-2-ol] | – | – | – | 0.76 | 0.83 | 487
7 | CCCOc1cc(-c2cncc(C3COB(O)C3)c2)ccc1SC (single isomer, unassigned) [Example 114, 4-(5-(4-(methylthio)-3-propoxyphenyl)pyridin-3-yl)-1,2-oxaborolan-2-ol] | – | – | – | 21.5 | 32.7 | 2910
8 | CCCOc1cc(-c2cc(C3COB(O)C3)cnn2)ccc1OC (single isomer, unassigned) [Example 136, 4-(6-(4-methoxy-3-propoxyphenyl)pyridazin-4-yl)-1,2-oxaborolan-2-ol] | – | – | – | 2.43 | 11.7 | 670
9 | CCOc1cc(-c2cncc(C3COB(O)C3)c2)cc(Cl)c1OC (stereo not drawn) [Example 45, 4-(5-(3-chloro-5-ethoxy-4-methoxyphenyl)pyridin-3-yl)-1,2-oxaborolan-2-ol] | – | – | – | 3.88 | 12.4 | 450
10 | CCCOc1cc(-c2cncc(C3COB(O)C3)c2)c(F)cc1OC (stereo not drawn) [Example 49, 4-(5-(2-fluoro-4-methoxy-5-propoxyphenyl)pyridin-3-yl)-1,2-oxaborolan-2-ol] | – | – | – | 3.21 | 4.4 | 166
11 | CCCOc1cc(-c2cncc(C3COB(O)C3)c2)ccc1OC(F)F (stereo not drawn) [Example 50, 4-(5-(4-(difluoromethoxy)-3-propoxyphenyl)pyridin-3-yl)-1,2-oxaborolan-2-ol] | – | – | – | 1.52 | 1.04 | 234
12 | CCCOc1cc(-c2cc(CO)cc(C3COB(O)C3)n2)ccc1OC (stereo not drawn) [Example 64, 4-(4-(hydroxymethyl)-6-(4-methoxy-3-propoxphenyl)pyridin-2-yl)-1,2-oxaborolan-2-ol] | – | – | – | 4.44 | 8.04 | 325
13 | COc1ccc(-c2cccc(C3COB(O)C3)n2)cc1OC1CCCC1 (stereo not drawn) [Example 65, 4-(6-(3-(cyclopentyloxy)-4-methoxyphenyl)pyridin-2-yl)-1,2-oxaborolan-2-ol] | – | – | – | 5.34 | 186 | 814
14 | CCCOc1c(OC)ccc(-c2cncc(C3COB(O)C3)c2)c1F (stereo not drawn) [Example 82, 4-(5-(2-fluoro-4-methoxy-3-propoxphenyl)pyridin-3-yl)-1,2-oxaborolan-2-ol] | 7.14 | 426 | 1.07 | – | – | –
15 | CCCOc1cc(-c2nc(C(C)O)cc(C3COB(O)C3)n2)ccc1OC (stereo not drawn) [Example 83, 4-(6-(1-hydroxyethyl)-2-(4-methoxy-3-propoxyphenyl)pyrimidin-4-yl)-1,2-oxaborolan-2-ol] | – | – | – | 4.73 | 9.42 | 439
16 | CCCOc1cc(-c2nc(COC)cc(C3COB(O)C3)n2)ccc1OC (stereo not drawn) [Example 102, 4-(2-(4-methoxy-3-propoxyphenyl)-6-(methoxymethyl)pyrimidin-4-yl)-1,2-oxaborolan-2-ol] | – | – | – | 3.01 | 2.07 | 1240
17 | COc1ccc(-c2cncc(C3COB(O)C3)c2)c(F)c1OC (stereo not drawn) [Example 108, 4-(5-(2-fluoro-3,4-dimethoxyphenyl)pyridin-3-yl)-1,2-oxaborolan-2-ol] | 22.1 | 493 | 4.35 | – | – | –
18 | CCCOc1cc(-c2cncc(C3COB(O)C3)c2)ccc1SC (stereo not drawn) [Example 113, 4-(5-(4-(methylthio)-3-propoxyphenyl)pyridin-3-yl)-1,2-oxaborolan-2-ol] | 36.1 | 497 | 3.81 | – | – | –
19 | CCCOc1c(OC)ccc(-c2cccc(C3COB(O)C3)c2)c1F (stereo not drawn) [Example 116, 4-(2′-fluoro-4′-methoxy-3′-propoxy-[1,1′-biphenyl]-3-yl)-1,2-oxaborolan-2-ol] | – | – | – | 2.45 | 42 | 508
20 | COc1cnc(-c2cccc(C3COB(O)C3)c2)nc1OC (stereo not drawn) [Example 122, 4-(3-(4,5-dimethoxypyrimidin-2-yl)phenyl)-1,2-oxaborolan-2-ol] | – | – | – | 7.49 | 362 | 567
21 | CCCOc1cc(-c2cccc(C3COB(O)C3)n2)ccc1OC (stereo not drawn) [Example 127, 4-(6-(4-methoxy-3-propoxyphenyl)pyridin-2-yl)-1,2-oxaborolan-2-ol] | – | – | – | 2.84 | 62.6 | 585
22 | COc1ccc(-c2nc(C3COB(O)C3)ccc2F)cc1OC1CCCC1 (stereo not drawn) [Example 131, 4-(6-(3-(cyclopentyloxy)-4-methoxyphenyl)-5-fluoropyridin-2-yl)-1,2-oxaborolan-2-ol] | – | – | – | 5.7 | 11.6 | 591
23 | CCCOc1cc(-c2cc(C3COB(O)C3)cnn2)ccc1OC (stereo not drawn) [Example 137] | – | – | – | 2.52 | 37.2 | 1090
24 | CCOc1cc(-c2cncc(C3COB(O)C3)c2)ccc1SC (stereo not drawn) [Example 144, 4-(5-(3-ethoxy-4-(methylthio)phenyl)pyridin-3-yl)-1,2-oxaborolan-2-ol] | – | – | – | 5.02 | 83.9 | 706
25 | COc1ccc(-c2cccc(C3COB(O)C3)c2)c(C#N)c1OC (stereo not drawn) [Example 177, 3′-(2-hydroxy-1,2-oxaborolan-4-yl)-3,4-dimethoxy-[1,1′-biphenyl]-2-carbonitrile] | – | – | – | 8.49 | 155 | 1220
26 | COc1ccc(-c2cccc(C3COB(O)C3)c2)cc1OCC(C)C (stereo not drawn) [Example 183, 4-(3′-isobutoxy-4′-methoxy-[1,1′-biphenyl]-3-yl)-1,2-oxaborolan-2-ol] | – | – | – | 6.4 | 102 | 1370
